Laboratory results as given in patent US8039586B1, “Cerebral organic anion transporter and its gene” (J-Pharma Co., Ltd., priority 1998, dated 2011).
Like-named read-outs stand apart in the source and are kept apart here.

How the values were obtained:
Type in all cases: cell-based
[1] = target: T1, hOAT3 (Homo sapiens, UniProt Q8TCC7); test: Uptake of radiolabeled compounds by Xenopus oocyte injected with hOAT3 cRNA
T1 construct: cRNA (RNA complementary to cDNA) was prepared in vitro from the plasmid comprising the hOAT3 recovered above; expressed in transfected cells; host or cells: Xenopus oocytes injected with hOAT3 cRNA
T1 sequence (Q8TCC7 1-542 K271E/D366H): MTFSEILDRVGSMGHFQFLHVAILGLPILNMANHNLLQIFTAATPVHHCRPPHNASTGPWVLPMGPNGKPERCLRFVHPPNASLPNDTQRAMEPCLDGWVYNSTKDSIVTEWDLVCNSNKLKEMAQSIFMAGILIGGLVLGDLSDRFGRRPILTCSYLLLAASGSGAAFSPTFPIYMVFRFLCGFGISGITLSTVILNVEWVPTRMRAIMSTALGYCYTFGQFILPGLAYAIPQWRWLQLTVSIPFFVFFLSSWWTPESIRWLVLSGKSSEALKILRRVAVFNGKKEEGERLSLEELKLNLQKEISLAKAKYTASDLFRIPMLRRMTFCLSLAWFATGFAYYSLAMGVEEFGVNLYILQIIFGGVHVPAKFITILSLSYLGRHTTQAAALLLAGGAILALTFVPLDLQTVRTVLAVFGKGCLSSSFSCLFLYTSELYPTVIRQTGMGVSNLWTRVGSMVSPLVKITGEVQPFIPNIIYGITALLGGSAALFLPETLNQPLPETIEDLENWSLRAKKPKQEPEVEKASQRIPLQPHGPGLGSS
Method: By using T7 RNA polymerase, cRNA (RNA complementary to cDNA) was prepared in vitro from the plasmid comprising the hOAT3 recovered above by the method by Sekine, et al. (see Sekine, T., et al. J. Biol. Chem., Vol. 272, pp. 18526-9, 1997).
According to the already reported method of Sekine, et al. (Sekine, T., et al. J. Biol. Chem., Vol. 272, pp. 18526-9, 1997), the resulting hOAT3 cRNA was injected in the Xenopus oocyte; the oocyte was subjected to an uptake test with various radiolabeled organic anions and organic cations. The control oocyte cell (oocyte cell with no injection of hOAT3 cRNA) and the oocyte cell injected with hOAT3 cRNA were cultured in a buffer containing the following radiolabels for one hour, to assay the uptake of the radiolabels into the oocytes.
In each figure, open column expresses the case of the control oocyte used; and closed column expresses the case of the oocyte injected with hOAT3 cRNA.

[2] = target: T2, rat OAT3 (rk1411) (Rattus norvegicus, UniProt Q9R1U7); test: Uptake of radiolabeled organic anions and cations by Xenopus oocyte expressing rk1411 (rat OAT3); conditions: Xenopus oocyte injected with rk1411 cRNA; FIG. 1
T2 construct: cRNA (RNA complementary to cDNA) was prepared in vitro from the plasmid carrying the clone (rk1411); expressed in transfected cells; host or cells: Xenopus oocytes injected with rk1411 cRNA
T2 sequence (Q9R1U7 1-536): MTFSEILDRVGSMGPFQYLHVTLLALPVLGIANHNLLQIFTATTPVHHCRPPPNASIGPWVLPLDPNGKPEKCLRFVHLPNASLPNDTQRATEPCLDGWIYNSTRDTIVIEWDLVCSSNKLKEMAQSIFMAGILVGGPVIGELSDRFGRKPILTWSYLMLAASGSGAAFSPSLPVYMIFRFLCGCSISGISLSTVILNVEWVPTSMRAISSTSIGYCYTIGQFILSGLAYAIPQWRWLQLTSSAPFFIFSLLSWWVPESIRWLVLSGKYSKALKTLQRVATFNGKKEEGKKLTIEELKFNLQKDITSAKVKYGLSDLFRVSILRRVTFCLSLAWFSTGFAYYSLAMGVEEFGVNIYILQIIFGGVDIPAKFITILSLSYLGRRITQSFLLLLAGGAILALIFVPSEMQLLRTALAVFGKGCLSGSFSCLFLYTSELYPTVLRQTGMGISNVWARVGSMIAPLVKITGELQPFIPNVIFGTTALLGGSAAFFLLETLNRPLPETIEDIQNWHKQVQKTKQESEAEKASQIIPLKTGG

[3] = target: T3, hOAT3 (Homo sapiens, UniProt Q8TCC7, D366H/K271E); test: Inhibition of 3H-estrone sulfate uptake in oocyte injected with hOAT3 cRNA; set-up: cRNA (RNA complementary to cDNA) was prepared in vitro from the plasmid comprising the hOAT3 recovered above; expressed in transfected cells; host or cells: Xenopus oocytes injected with hOAT3 cRNA; conditions: 50 nM 3H-estrone sulfate; non-radiolabeled compound at 500 μM or the concentration shown in FIG. 19; one hour
T3 sequence (Q8TCC7 1-542 K271E/D366H): T1 sequence (Q8TCC7 1-542 K271E/D366H)

[4] = target: T2, rat OAT3 (rk1411); test: Michaelis-Menten dynamic test of organic anion transport with rk1411 in oocyte
Text: The organic anion transport with rk1411 was subjected to the Michaelis-Menten dynamic test.

[5] = target: T2, rat OAT3 (rk1411); test: Inhibition of 3H-estrone sulfate uptake in oocyte injected with rk1411 cRNA
[6] = substrate: Nc1ccc(C(=O)NCC(=O)O)cc1; test: Michaelis-Menten dynamic test of organic anion transport with rk1411 in oocyte; conditions: other: transport by rk1411 (rat OAT3) in Xenopus oocyte; FIG. 2
[7] = substrate 10 μM, one hour, versus control oocyte
[8] = transport by rk1411 (rat OAT3) in Xenopus oocyte
[9] = 1 mM unlabeled compound, Xenopus oocyte, FIG. 3
[10] = substrate 50 nM, one hour, versus control oocyte
[11] = substrate 100 nM, one hour, versus control oocyte

Molecule: Nc1ccc(C(=O)NCC(=O)O)cc1 [PAH, p-aminohippuric acid]
- uptake of radiolabeled compound by oocyte with hOAT3 expression [1, 7]: takes up
- uptake of radiolabeled compound by oocyte in which rk1411 was expressed [2]: could take up
- inhibition of the transport of 3H-estrone sulfate with hOAT3 [3]: significantly inhibited
- Km [4]: 64.7 ± 10 µM
- Vmax [4, 8]: 23.3 ± 2.8 pmol/hr/oocyte

Molecule: CC[N+](CC)(CC)CC [TEA, tetraethylammonium]
- uptake of radiolabeled compound by oocyte with hOAT3 expression [1]: never transported
- inhibition of the transport of 3H-estrone sulfate with hOAT3 [3]: never exerted any inhibitory action

Molecule: CC1(C)S[C@@H]2[C@H](NC(=O)Cc3ccccc3)C(=O)N2[C@H]1C(=O)O [benzylpenicillin]
- inhibition of 3H-estrone sulfate transport with rk1411 [5, 9]: significantly inhibited
- inhibition of the transport of 3H-estrone sulfate with hOAT3 [3]: significantly inhibited

Molecule: COc1ccc(CCN(C)CCCC(C#N)(c2ccc(OC)c(OC)c2)C(C)C)cc1OC (stereo not shown) [berapamil]
- inhibition of 3H-estrone sulfate transport with rk1411 [5, 9]: never exerted any such inhibitory action

Molecule: O=C1OC(c2ccc(O)c(S(=O)(=O)O)c2)(c2ccc(O)c(S(=O)(=O)O)c2)c2c(Br)c(Br)c(Br)c(Br)c21 [bromosulfophthalein]
- inhibition of 3H-estrone sulfate transport with rk1411 [5, 9]: significantly inhibited
- inhibition of the transport of 3H-estrone sulfate with hOAT3 [3]: significantly inhibited

Molecule: CCCCNc1cc(C(=O)O)cc(S(N)(=O)=O)c1Oc1ccccc1 [bumetanide]
- inhibition of 3H-estrone sulfate transport with rk1411 [5, 9]: significantly inhibited

Molecule: C[C@H](CCC(=O)O)[C@H]1CC[C@H]2[C@@H]3[C@H](O)C[C@@H]4C[C@H](O)CC[C@]4(C)[C@H]3C[C@H](O)[C@]12C [cholic acid]
- inhibition of 3H-estrone sulfate transport with rk1411 [5, 9]: significantly inhibited
- uptake of radiolabeled compound by oocyte with hOAT3 expression [1, 7]: takes up

Molecule: CN/C(=N/CCSCc1nc[nH]c1C)NC#N [cimetidine]
- uptake of radiolabeled compound by oocyte with hOAT3 expression ([1]; substrate 150 nM, one hour, versus control oocyte): takes up

Molecule: C[C@]12CC[C@@H]3c4ccc(O)cc4CC[C@H]3[C@@H]1CC[C@@H]2O[C@@H]1O[C@H](C(=O)O)[C@@H](O)[C@H](O)[C@H]1O [estradiol glucuronide]
- uptake of radiolabeled compound by oocyte with hOAT3 expression [1, 10]: takes up

Molecule: O=C(O)CCCC(=O)O [glutaric acid]
- uptake of radiolabeled compound by oocyte with hOAT3 expression [1, 7]: takes up
- inhibition of the transport of 3H-estrone sulfate with hOAT3 [3]: significantly inhibited

Molecule: N=C(N)N [guanidine]
- inhibition of 3H-estrone sulfate transport with rk1411 [5, 9]: never exerted any such inhibitory action

Molecule: CC1(C)C(/C=C/C=C/C=C/C=C2\N(CCCCS(=O)(=O)O)c3ccc4ccccc4c3C2(C)C)=[N+](CCCCS(=O)(=O)[O-])c2ccc3ccccc3c21 [indocyanine green]
- inhibition of 3H-estrone sulfate transport with rk1411 [5, 9]: significantly inhibited

Molecule: COc1ccc2c(c1)c(CC(=O)O)c(C)n2C(=O)c1ccc(Cl)cc1 [indomethacin]
- uptake of radiolabeled compound by oocyte with hOAT3 expression [1, 7]: takes up
- inhibition of the transport of 3H-estrone sulfate with hOAT3 [3]: significantly inhibited

Molecule: CN(Cc1cnc2nc(N)nc(N)c2n1)c1ccc(C(=O)N[C@@H](CCC(=O)O)C(=O)O)cc1 [methotrexate]
- uptake of radiolabeled compound by oocyte with hOAT3 expression [1, 11]: takes up
- inhibition of the transport of 3H-estrone sulfate with hOAT3 [3]: significantly inhibited

Molecule: C[C@@H]1Cc2c(Cl)cc(C(=O)N[C@@H](Cc3ccccc3)C(=O)O)c(O)c2C(=O)O1 [ochratoxin A]
- uptake of radiolabeled compound by oocyte with hOAT3 expression [1, 11]: takes up
- uptake of radiolabeled compound by oocyte in which rk1411 was expressed [2]: could take up
- Vmax [4, 8]: 8.08 ± 0.33 pmol/hr/oocyte
- Km ([4]; transport by rk1411 (rat OAT3) in Xenopus oocyte, FIG. 2, listed as Ochratoxin A, read-out: Km): 0.739 ± 0.178 µM
- Km ([4]; transport by rk1411 (rat OAT3) in Xenopus oocyte, FIG. 2, read-out: Km): 0.74 µM

Molecule: CCCN(CCC)S(=O)(=O)c1ccc(C(=O)O)cc1 [probenecid]
- inhibition of 3H-estrone sulfate transport with rk1411 [5, 9]: significantly inhibited
- inhibition of the transport of 3H-estrone sulfate with hOAT3 [3]: significantly inhibited

Molecule: CCCCC[C@H](O)/C=C/[C@H]1[C@H](O)CC(=O)[C@@H]1C/C=C\CCCC(=O)O [prostaglandin E2]
- uptake of radiolabeled compound by oocyte with hOAT3 expression ([1]; substrate 1 nM, one hour, versus control oocyte): takes up

Molecule: CN1C(C(=O)Nc2ccccn2)=C(O)c2ccccc2S1(=O)=O [pyroxicam]
- inhibition of 3H-estrone sulfate transport with rk1411 [5, 9]: significantly inhibited

Molecule: O=C(O)c1ccccc1O [salicylic acid]
- uptake of radiolabeled compound by oocyte with hOAT3 expression ([1]; substrate 1 μM, one hour, versus control oocyte): takes up

Molecule: C[C@H](CCC(=O)NCCS(=O)(=O)O)[C@H]1CC[C@H]2[C@@H]3[C@H](O)C[C@@H]4C[C@H](O)CC[C@]4(C)[C@H]3C[C@H](O)[C@]12C [taurocholic acid]
- inhibition of 3H-estrone sulfate transport with rk1411 [5]: significantly inhibited
- uptake of radiolabeled compound by oocyte with hOAT3 expression [1, 7]: takes up
- inhibition of the transport of 3H-estrone sulfate with hOAT3 [3]: significantly inhibited

Molecule: dehydroepiandrosterone sulfate
- uptake of radiolabeled compound by oocyte with hOAT3 expression [1, 10]: takes up

B1: rat OAT3 (rk1411) (Rattus norvegicus) (protein)
chain: T2 sequence (Q9R1U7 1-536)
notes: cRNA (RNA complementary to cDNA) was prepared in vitro from the plasmid carrying the clone (rk1411); expressed in transfected cells; host or cells: Xenopus oocytes injected with rk1411 cRNA
- Km [6]: 4.7 µM
